Assay results published in article PMC7617869, “Molecular glues that inhibit deubiquitylase activity and inflammatory signaling” (Nature Structural & Molecular Biology, 2025).
“And” between values parts separate entries of the source, which are not always exact repeats. Equal values may be shown once.

Key:
[1] = tested on: IFN-stimulated response elements (ISRE) in THP-1 cells; assay: THP-1 ISRE luciferase reporter, IFNα2 stimulation; assay type: cell-based, human
Protocol: (§1) THP-1 in vitro experiments
(§2) THP-1-DualTM cells (InvivoGen), derived from a human monocytic cell line, isolated from a patient with acute monocytic leukaemia, were cultured as per manufacturer’s guidance. Cells were seeded at 1x10^6 cells/mL in RPMI1640 media containing 10% fetal bovine serum (FBS), 1% penicillin-streptomycin (PS) (Gibco Laboratories) with DMSO (0.1%) (control) or in media containing JMS-175- […]
(§3) ng/mL) (Merck Life Science), ODN 2216 (1 µM) (Miltenyi Biotec), or Poly:IC (1 µg/mL) (InvivoGen).
(§4) Tofacitinib (Cambridge Biosciences) at 0.4 µM was used for comparison against a known JAK inhibitor.
(§5) Cells were centrifuged at 300 g for 5 minutes. Supernatant was removed and subjected to simultaneous study of the NF -κB pathway, by monitoring the activity of secreted alkaline phosphatase reporter (SEAP), and the IRF pathway, by assessing the activity o f a secreted Lucia luciferase using QUANTI - Blue ™ Solution and QUANTI -Luc™ 4 Lucia/Gaussia (InvivoGen), respectively, as per manufacturer’s instructions. Pelleted cells were used for FACS analysis using IFNα/β R1 APC-conjugated antibody or isotype control (Biotechne, FAB245A and IC002A), or unstained staining procedure with and without Zombie GreenTM (Biolegend). Samples were analysed using CytoFlex LX (Beckman) (50,000 live cells per condition). Median fluorescence intensity for APC channel gated on single cell live cells was analysed and compared as a percentage to control (no stimulation condition). […]

[2] = tested on: ISRE in THP-1 cells (TLR3 agonist polyI:C); assay: THP-1 ISRE luciferase reporter, polyI:C stimulation; assay type: cell-based, human; details: polyI:C 1 µg/mL, 0.4 μM, 16 h
Protocol: as §1, §2, §3, §4, §5

[3] = tested on: ISRE in THP-1 cells (TLR9 agonist ODN 2216); assay: THP-1 ISRE luciferase reporter, ODN 2216 stimulation; assay type: cell-based, human; details: ODN 2216 1 µM, 0.4 μM, 16 h
Protocol: as §1, §2, §3, §4, §5

[4] = tested on: NF-κB pathway in THP-1 cells; assay: THP-1 NF-κB pathway SEAP reporter, lipopolysaccharide stimulation; assay type: cell-based, human; details: LPS + compound, three replicates
Protocol: as §1, §2, §3, §4, §5

THP-1 cells = assay: THP-1 live cell percentage; assay type: cell-based; details: male, human, 16 h, 0.4 µM
Protocol: as §1, §2, §3, §4, §5

[5] = tested on: IFNAR1 surface levels in THP-1 cells; assay: THP-1 IFNAR1 surface levels (FACS); assay type: cell-based, human
Protocol: as §1, §2, §3, §4, §5

- percentage of live cells (THP-1 cells): 98.18%
Structure (SMILES): C[C@@H]1CCN(C(=O)CC#N)C[C@@H]1N(C)c1ncnc2[nH]ccc12 [tofacitinib, reference compound]
- ISRE luciferase reporter signal (Fig. 5a) ([1]; IFN + compound, replicate values): 1776.67 and 1732 and 1959.33 and 2178.33
- ISRE relative expression ([1]; hIFNα2 25 ng/ml, 0.4 μM, 16 h): potent effect
- ISRE luciferase signal in THP-1 supernatant [2]: not reduced
- ISRE luciferase signal in THP-1 supernatant ([2]; listed as Tofacitinib): 199.667 and 316.333 and 317.333
- ISRE luciferase signal in THP-1 supernatant [3]: not reduced
- ISRE luciferase signal in THP-1 supernatant ([3]; listed as Tofacitinib): 198.333 and 276 and 283.333
- NF-κB SEAP reporter signal [4]: 1.232 and 1.181 and 1.209
- IFNAR1 surface levels (Fig. 5h) ([5]; IFN + compound, No IFN = 100): 59.2689 and 88.3889 and 79.9066
- IFNAR1 surface levels ([5]; THP-1, hIFNα2 25 ng/ml, 0.4 μM, 16 h): no significant reduction
